Results from patent publication US11371097B2, “Articles for diagnosis of liver fibrosis” (THE GOVERNMENT OF THE UNITED STATES, as represented by THE …, priority 2015, dated 2022).

Legend:
liver = conditions: 5-7 days oral administration or intraperitoneal injection, various doses; cited from earlier work
liver gene expression = experiment: Liver gene expression by microarray (transcriptomic analysis); assay type: in vivo, rats
Protocol: Serum miRNA expression was measured by next-generation sequencing. Gene expression in the liver was determined by microarray, and global serum and liver protein expression was determined by semi-quantitative mass spectrometry. […] Transcriptomic analysis identified 506 differentially expressed genes in the liver. 13 miRNAs were predicted to target 100 unique differentially expressed genes in the liver. Global proteomics analysis identified 131 differentially expressed proteins in the liver and 53 in the serum. Of these, 7 miRNAs targeted 13 unique genes coding for differentially expressed liver tissue proteins and 3 miRNAs targeted 3 unique genes coding for serum proteins. These 16 differentially expressed miRNAs in the serum are predicted to target and potentially regulate gene expression contributing to the progression of toxic liver injury. (Fermenter M G et al. Serum miRNA as prognostic indicators of toxic liver injury. Submitted abstract in October 2015 for presentation at the Society of Toxicology in March 2016 (New Orleans, La.)).

[1] = Observation of plasma (lipemia) after dosing; assay type: in vivo, Male Sprague-Dawley rats; conditions: all doses
Protocol: Animals were observed cageside one hour following daily dose administration, then 1-2 times per day during dosing regimens. Body weights were measured daily prior to dose administration, and prior to euthanasia. Twenty-four hours after the final dose administration, animals were anesthetized with isoflurane then euthanized by exsanguination followed by decapitation. Livers were harvested at necropsy and weighed to within 0.1 g. One half of the left lobe of the liver was fixed in 10% formalin. The remaining half of the left lobe of the liver was flash frozen in liquid nitrogen, then stored below −70° C. Liver specimens were frozen in less than three minutes from time of death.

## Nc1ccc(Cc2ccc(N)cc2)cc1 [4,4′-methylenedianiline]
liver
  Fibrosis score in the DrugMatrix study: scored fibrosis-positive
Liver gene expression
  Differentially expressed genes: 506

## C[C@@H]1C[C@H]2[C@@H]3CCC4=CC(=O)C=C[C@]4(C)[C@@]3(F)[C@@H](O)C[C@]2(C)[C@@]1(O)C(=O)CO [dexamethasone]
[1]
  Lipemia (plasma appearance): resulted in lipemia (milky white plasma)
